This note sets out measurements from patent US20230271954A1 (Gossamer Bio Services, Inc., priority 2020, published 2023).

In assay [1] the target is DGKα (Homo sapiens, UniProt P23743). The experiment in a line: DGKα biochemical assay (ADP-Glo). As to conditions: read-out: DGK α IC50. The protocol: (§1) Compounds of the present invention were prepared into 10 mM DMSO solution and 10 nL of stock was transferred into 384 plates (Optiplate 384 plate) using Echo550. DMSO was used as high control, and ATP substrate buffer was used as a low control. A 1× enzyme assay buffer was prepared (Hepes, pH 7.0 25 mM, BSA 0.05%, Triton-X100 0.002%, CaCl2) 1 μM, MgCl2 10 mM, DTT 2 mM). […] OAG (1-oleoyl-2-acetyl-sn-glycerol, 25 mg/ml, Avanti 8001000) and PS (10 mg/ml, Avanti 840032P) were mixed at the ratio of 1:2. A 1× substrate solution was prepared with 1× assay buffer by 100-fold dilution. The substrate solution was sonicated on ice for 1 min. The pure ATP was added to the substrate solution (DGKα:400 μM). 5 μL of the enzyme solution were added to the 384 well plate, and the plate was spun for 1 min at 1000 rpm and incubated for 30 mins at RT. 5 μL of 1× substrate solution were added to the 384 well plate, the plate was spun and then incubated for 45 mins at RT. 10 μL ADP-Glo […] was added to stop the assay. After 60 mins at RT, 20 μL ADP-Glo Detection buffer was added as the final step. Plate was read after 45 min incubation at RT.
(§2) Data analysis was performed by calculating the […] using following the formula:
(§3) [formula] • High control (Hc): DMSO/DGKα(DGKζ)/Substrate/ATP/ADP-Glo • Low Control (Lc): ATP/ADP-Glo

In assay [2] the target is T1, DGKζ (Homo sapiens, UniProt Q13574).
T1 construct: purchased Carna 12-110
Put plainly: DGKζ biochemical assay (ADP-Glo). As to conditions: read-out: DGK ζ IC50. On the procedure:
as §1, §2, §3

T1 sequence (Q13574 1-929 isoform Q13574-4): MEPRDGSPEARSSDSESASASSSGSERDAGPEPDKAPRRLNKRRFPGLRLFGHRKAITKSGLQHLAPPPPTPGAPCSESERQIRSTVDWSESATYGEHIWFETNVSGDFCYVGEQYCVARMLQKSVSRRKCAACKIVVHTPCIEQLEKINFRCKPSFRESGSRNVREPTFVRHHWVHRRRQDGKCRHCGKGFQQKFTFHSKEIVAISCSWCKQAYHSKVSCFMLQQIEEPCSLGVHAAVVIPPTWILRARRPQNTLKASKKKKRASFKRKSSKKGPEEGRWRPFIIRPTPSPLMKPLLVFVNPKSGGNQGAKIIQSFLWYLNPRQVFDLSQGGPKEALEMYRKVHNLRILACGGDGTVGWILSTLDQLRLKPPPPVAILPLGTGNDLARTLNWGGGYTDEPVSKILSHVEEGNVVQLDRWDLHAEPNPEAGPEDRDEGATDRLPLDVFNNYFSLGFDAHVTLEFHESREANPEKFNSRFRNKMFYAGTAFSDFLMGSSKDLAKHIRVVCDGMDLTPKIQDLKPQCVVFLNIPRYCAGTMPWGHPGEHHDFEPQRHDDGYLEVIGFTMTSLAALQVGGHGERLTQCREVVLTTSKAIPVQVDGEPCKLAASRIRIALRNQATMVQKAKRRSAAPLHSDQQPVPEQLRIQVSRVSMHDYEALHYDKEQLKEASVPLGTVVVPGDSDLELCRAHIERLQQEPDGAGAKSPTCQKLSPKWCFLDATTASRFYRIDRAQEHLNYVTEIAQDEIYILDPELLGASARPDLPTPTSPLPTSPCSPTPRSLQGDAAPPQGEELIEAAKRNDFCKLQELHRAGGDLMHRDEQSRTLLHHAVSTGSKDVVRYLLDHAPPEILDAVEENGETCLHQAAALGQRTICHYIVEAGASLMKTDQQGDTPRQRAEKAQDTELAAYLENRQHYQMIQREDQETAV
Sequence of DGKα (P23743 whole entry): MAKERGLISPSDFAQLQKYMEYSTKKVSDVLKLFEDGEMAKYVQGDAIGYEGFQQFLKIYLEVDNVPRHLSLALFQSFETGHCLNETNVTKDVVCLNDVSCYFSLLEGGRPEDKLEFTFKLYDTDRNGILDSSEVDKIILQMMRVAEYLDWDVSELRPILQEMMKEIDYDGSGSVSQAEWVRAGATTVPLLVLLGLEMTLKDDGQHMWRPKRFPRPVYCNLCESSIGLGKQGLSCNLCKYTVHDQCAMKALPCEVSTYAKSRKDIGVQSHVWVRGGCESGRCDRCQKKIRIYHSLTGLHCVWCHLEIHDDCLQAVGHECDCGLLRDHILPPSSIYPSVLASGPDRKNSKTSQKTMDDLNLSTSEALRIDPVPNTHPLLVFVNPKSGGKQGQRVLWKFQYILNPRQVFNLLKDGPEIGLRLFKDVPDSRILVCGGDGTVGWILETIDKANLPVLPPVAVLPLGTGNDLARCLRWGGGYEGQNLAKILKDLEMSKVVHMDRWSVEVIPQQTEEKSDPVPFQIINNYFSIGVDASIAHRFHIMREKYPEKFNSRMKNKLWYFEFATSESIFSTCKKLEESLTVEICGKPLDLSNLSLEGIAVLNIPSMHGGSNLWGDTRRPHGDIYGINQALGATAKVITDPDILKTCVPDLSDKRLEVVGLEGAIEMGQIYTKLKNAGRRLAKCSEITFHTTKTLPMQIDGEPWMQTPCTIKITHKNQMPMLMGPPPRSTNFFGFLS

In the case of `CN1C(=O)COc2ccc(N(CC3COCCO3)[C@H]3CC[C@@H](N(C)c4c(C#N)c(=O)n(C)c5ccc(C#N)nc45)CC3)cc21` (stereo partly drawn) [Example 187, cis-8-((4-(((1,4-dioxan-2-yl)methyl)(4-methyl-3-oxo-3,4-dihydro-2H-benzo[b][1,4]oxazin-6-yl)amino)cyclohexyl)(methyl)amino)-5-methyl-6-oxo-5,6-dihydro-1,5-naphthyridine-2,7-dicarbonitrile], the IC50 in assay [1] and in assay [2] was 100 to 1000 nM throughout.

Turning to `CN1C(=O)CN([C@H]2CC[C@H](N(c3ccccc3O)C3CC3)CC2)c2nc(C#N)ccc21` [Example 2B, 4-(trans-4-(Cyclopropyl(2-hydroxyphenyl)amino)cyclohexyl)-1-methyl-2-oxo-1,2,3,4-tetrahydropyrido[3,2-b]pyrazine-6-carbonitrile], the 50% inhibitory concentration (IC50) in assay [1] was 100 to 1000 nM; in assay [2] it was at least 1000 nM.

As to `Cn1c(=O)c(C#N)c(N(C)[C@H]2CC[C@H](N(c3ccc(F)cc3)C3CC3)CC2)c2nc(Cl)ccc21` [Example 3F, trans-6-chloro-4-((4-(cyclopropyl(4-fluorophenyl)amino)cyclohexyl) (methyl)amino)-1-methyl-2-oxo-1,2-dihydro-1,5-naphthyridine-3-carbonitrile], the IC50 in assay [1] is 10 to 100 nM; in assay [2], 100 to 1000 nM.

As to `Cn1c(=O)c(C#N)c(N(C)[C@H]2CC[C@H](N(CC3CC3)c3ccc(F)c(OC(F)F)c3)CC2)c2nc(C#N)ccc21` [Example 76], the IC50 in assay [1] and in assay [2] was 100 to 1000 nM each time.

With `COc1cc(F)ccc1N(C1CC1)[C@H]1CC[C@H](N(C)c2cc(=O)n(C)c3ccc(C#N)nc23)CC1` [Example 3V], the IC50 in assay [1] was at least 1000 nM; in assay [2], 100 to 1000 nM.

Turning to `Cc1cc(F)ncc1N(CC1CCC1)[C@H]1CC[C@H](N(C)c2c(C#N)c(=O)n(C)c3ccc(C#N)nc23)CC1` [Example 140, trans-8-((-4-((cyclobutylmethyl)(6-fluoro-4-methylpyridin-3-yl)amino)cyclohexyl)(methyl)amino)-5-methyl-6-oxo-5,6-dihydro-1,5-naphthyridine-2,7-dicarbonitrile], the IC50 in assay [1] is 100 to 1000 nM; in assay [2] it was 10 to 100 nM.

For the compound `Cn1c(=O)c(C#N)c(N(C)[C@H]2CC[C@@H](N(CC3COCCO3)c3ccc4c(c3)OCCO4)CC2)c2nc(C#N)ccc21` (stereo partly drawn) [Example 182, cis-8-((4-(((1,4-dioxan-2-yl)methyl)(2,3-dihydrobenzo[b][1,4]dioxin-6-yl)amino)cyclohexyl) (methyl)amino)-5-methyl-6-oxo-5,6-dihydro-1,5-naphthyridine-2,7-dicarbonitrile], the values for the IC50 in assay [1] and in assay [2] were at least 1000 nM and below 10 nM, respectively.

With `Cn1c(=O)c(C#N)c(N(C)[C@H]2CC[C@@H](N(CC3CCC3)c3ccc(F)cc3)CC2)c2nc(C#N)ccc21` [Example 42, cis-8-((-4-((cyclobutylmethyl)(4-fluorophenyl)amino)cyclohexyl)(methyl)amino)-5-methyl-6-oxo-5,6-dihydro-1,5-naphthyridine-2,7-dicarbonitrile], the IC50 in assay [1] was below 10 nM; in assay [2] it was 100 to 1000 nM.

On to `CN1C(=O)CN([C@H]2CC[C@@H](N(CC3CC3)c3ccccc3)CC2)c2nc(C#N)ccc21` [Example 2C, cis-4-[4-[N-(Cyclopropylmethyl)anilino]cyclohexyl]-1-methyl-2-oxo-3H-pyrido[2,3-b]pyrazine-6-carbonitrile], for which the IC50 is 100 to 1000 nM in assay [1] and at least 1000 nM in assay [2].

Turning to `Cn1c(=O)c(C#N)c(N(C)[C@H]2CC[C@H](N(CC3COCCO3)c3ccc(F)cc3)CC2)c2nc(C#N)ccc21` (stereo partly drawn) [Example 149, trans-8-((-4-(((1,4-dioxan-2-yl)methyl)(4-fluorophenyl)amino)cyclohexyl)(methyl)amino)-5-methyl-6-oxo-5,6-dihydro-1,5-naphthyridine-2,7-dicarbonitrile], the IC50 in assay [1] and in assay [2] was 100 to 1000 nM in each case.

Consider `Cn1c(=O)cc(N(C)[C@H]2CC[C@@H](N(CC3CC3)c3cccc(F)c3)CC2)c2nc(C#N)ccc21` [Example 24, cis-8-((4-((cyclopropylmethyl)(3-fluorophenyl)amino)cyclohexyl)(methyl)amino)-5-methyl-6-oxo-5,6-dihydro-1,5-naphthyridine-2-carbonitrile], for which the IC50 is 10 to 100 nM in assay [1] and at least 1000 nM in assay [2].

For the compound `Cc1[nH]c2ccccc2c1C(=O)N[C@H]1CC[C@H](N(CC2CC2)c2ccccc2)CC1` [Example 4B], the IC50 in assay [1] and in assay [2] was at least 1000 nM each time.

With `CC(C)C(=O)N(c1ccc(F)cc1)[C@H]1CC[C@@H](N(C)c2c(C#N)c(=O)n(C)c3ccc(C#N)nc23)CC1` [Example 209, cis-N-(4-((3,6-dicyano-1-methyl-2-oxo-1,2-dihydro-1,5-naphthyridin-4-yl)(methyl)amino)cyclohexyl)-N-(4-fluorophenyl)isobutyramide], the IC50 in assay [1] is 100 to 1000 nM; in assay [2], at least 1000 nM.

For the compound `Cn1c(=O)c(C#N)c(N(C)[C@H]2CC[C@H](N(CC3COC3)c3ccc(F)cc3)CC2)c2nc(Cl)ccc21` [Example 3N, trans-6-Chloro-4-[[4-(N-4-fluorophenyl-N-oxetan-3-ylmethylanilino)cyclohexyl]-methylamino]-1-methyl-2-oxo-1,2-dihydro-1,5-naphthyridine-3-carbonitrile], the IC50 in assay [1] is 10 to 100 nM; in assay [2], at least 1000 nM.

For the compound `Cn1c(=O)c(C#N)c(N(C)[C@H]2CC[C@@H](N(CC3CC3)c3ccc4c(c3)OCO4)CC2)c2nc(Cl)ccc21` [Example 78], the IC50 in assay [1] fell in the range of 100 to 1000 nM; in assay [2], 10 to 100 nM.

Take `CN(c1cc(=O)n(C)c2ccc(C#N)nc12)C1CCC(N(CC2CCC2)c2ccc(CN3CCOCC3)cc2)CC1` (single isomer, unassigned) [Example 189, (cis or trans)-8-((4-((cyclobutylmethyl)(4-(morpholinomethyl)phenyl)amino)cyclohexyl) (methyl)amino)-5-methyl-6-oxo-5,6-dihydro-1,5-naphthyridine-2-carbonitrile]: the IC50 in assay [1] and in assay [2] was at least 1000 nM each time.

Regarding `Cn1c(=O)cc(N(C)[C@H]2CC[C@@H](N(CC3CC3)c3ccc(F)c(OC4CC4)c3)CC2)c2nc(C#N)ccc21` [Example 122, cis-8-((-4-((3-cyclopropoxy-4-fluorophenyl) (cyclopropylmethyl)amino)cyclohexyl)(methyl)amino)-5-methyl-6-oxo-5,6-dihydro-1,5-naphthyridine-2-carbonitrile], the IC50 in assay [1] and in assay [2] was 100 to 1000 nM each time.

Consider `COc1cc(F)ccc1N(CC1CC1)[C@H]1CC[C@H](N(C)c2c(C#N)c(=O)n(C)c3ccc(Cl)nc23)CC1` [Example 108, trans-6-chloro-4-((-4-((cyclopropylmethyl)(4-fluoro-2-methoxyphenyl)amino)cyclohexyl)(methyl)amino)-1-methyl-2-oxo-1,2-dihydro-1,5-naphthyridine-3-carbonitrile], for which the IC50 lay in the range of 10 to 100 nM in assay [1] and 100 to 1000 nM in assay [2].

`Cn1c(=O)c(C#N)c(N(C)[C@H]2CC[C@H](N(c3ccc(F)cn3)C3CC3)CC2)c2nc(Cl)ccc21` [Example 3I]: the IC50 was in the range of 10 to 100 nM in assay [1] and 100 to 1000 nM in assay [2].

On to `Cc1nc(F)ccc1N(CC1CCC1)[C@H]1CC[C@H](N(C)c2c(C#N)c(=O)n(C)c3ccc(C#N)nc23)CC1` [Example 131, trans-8-((-4-((cyclobutylmethyl)(6-fluoro-2-methylpyridin-3-yl)amino)cyclohexyl)(methyl)amino)-5-methyl-6-oxo-5,6-dihydro-1,5-naphthyridine-2,7-dicarbonitrile], for which the IC50 in assay [1] and in assay [2] was 100 to 1000 nM in each case.

Regarding `Cn1c(=O)c(C#N)c(N(C)[C@H]2CC[C@H](N(CC3CCC3)c3ccc(CCN4CCOCC4)cc3)CC2)c2nc(C#N)ccc21` [Example 172, trans-8-((4-((cyclobutylmethyl)(4-(2-morpholinoethyl)phenyl)amino)cyclohexyl)(methyl)amino)-5-methyl-6-oxo-5,6-dihydro-1,5-naphthyridine-2,7-dicarbonitrile], the IC50 in assay [1] and in assay [2] was at least 1000 nM each time.

Consider `Cn1c(=O)c(C#N)c(N(C)[C@H]2CC[C@H](N(CC3CCOCC3)c3ccc(F)cc3)CC2)c2nc(C#N)ccc21` [Example 59, trans-8-((-4-((4-fluorophenyl)((tetrahydro-2H-pyran-4-yl)methyl)amino)cyclohexyl)(methyl)amino)-5-methyl-6-oxo-5,6-dihydro-1,5-naphthyridine-2,7-dicarbonitrile], for which the IC50 in assay [1] and in assay [2] was 100 to 1000 nM throughout.

Regarding `Cc1cc(N(CC2CCC2)[C@H]2CC[C@@H](N(C)c3c(C#N)c(=O)n(C)c4ccc(C#N)nc34)CC2)ccc1F` [Example 91], the results for the concentration for half-maximal inhibition (IC50) in assay [1] and in assay [2] were below 10 nM and 10 to 100 nM, respectively.

Regarding `Cc1[nH]c2ccccc2c1C(=O)N[C@H]1CC[C@@H](N(CC2CC2)c2ccccc2)CC1` [Example 4A], the half-inhibitory concentration (IC50) in assay [1] and in assay [2] was at least 1000 nM each time.
